From patent EP0359745B1, “GROWTH FACTOR RECEPTOR” (IMPERIAL CANCER RESEARCH TECHNOLOGY LIMITED, priority 1987, dated 1988)
Blank lines part the entries; values can stand above or below the molecule they belong to. Non-standard residues stand in square brackets, D forms with d. Residues, ends and D or L forms follow the SMILES beside them. No end group written: not given here.

Columns and labels:
Mr 75000-85000 protein = Mr 75000-85000 protein (Mus musculus, UniProt P21729); test: ¹²⁵I-GRP affinity labelling (EGS cross-linking) of the Mr 75000-85000 protein in Swiss 3T3 cells, SDS-PAGE and scanning densitometry; type: binding; set-up: endogenous in cells; host or cells: Swiss 3T3 cells (mouse fibroblasts); conditions: for cross-linking of ¹²⁵I-GRP / level of the Mr 75000-85000 protein (in words): summary of Table 1, saturating concentrations of the other mitogens; for Mr 75000-85000 protein % of control: ¹²⁵I-GRP (0.5 nM), 15°C, 2.5 h, 6 mM EGS, additions: GRP 360 nM, GRP (14-27) 30 nM, bombesin 30 nM, litorin 92 nM, neuromedin B 220 nM, [D-Arg¹,D-Pro²,D-Trp^7,9,Leu¹¹] substance P 100 »M, GRP (1-16) 3230 nM, PDGF 5 nM, EGF 83 nM, vasopressin 1000 nM, insulin 1 »g/ml, phorbol 12,13 dibutyrate 2000 nM, substance P 740 nM, substance K 880 nM, somatostatin 610 nM, neurotensin 600 nM
Method: After 2.5 h the cells were washed three times at 15°C with phosphate buffered saline (PBS) ad then incubated for 15 min at 15°C In 1 ml of binding medium, pH 7.4 In the presence of the appropriate cross-linking agent at the concentration indicated. The cross-linking agents (EGS, DSS, DSP and BSCOES) were dissolved in dimethyl sulphoxide immediately prior to use and were added to medium to give a final concentration of dimethylsulphoxide of 1-2%. The cultures were rapidly rinsed twice with PBS at 4°C and solubilized in 0.1ml of 2 x sample buffer 0.2 M Tris-HCl, pH 6.8, 10% (w/v) glycerol, 6% sodium dodecyl sulphate (SDS) (w/v) 4% β-mercaptoethanol (v/v) and 2 mM ethylenediaminetetraacetic acid. Samples were immediately heated at 100°C for 3-5 min and analysed by either one or two-dimensional gel electrophoresis.
Slab gel electrophoresis was performed using 7.5% acrylamide in the separating gel ad 5% in the stacking gel, ad 0.1% SDS (31). After electrophoresis gels were stained, destained and dried down onto paper for autoradiography with Fuji X-ray film (Fuji Photo Film Co. Ltd. Japan). Dried gels were exposed to film for 4-8 days. Two-dimensional gel electrophoresis was performed as described by O'Farrell (32) using isoelectric focusing in the 1st dimension and SDS-polyacrylamide gel electrophoresis (SDS-PAGE) (8% polyacrylamide) in the second dimension. The samples prepared for isoelectric focusing containing 1.4% LKB ampholytes, pH 5-7, plus 0.6% LKD ampholytes, pH 3.5-10, 6M urea, and 2% Nonidet P-40. The Mr 75000-85000 band from autoradiograms was scanned using a Joyce-Loebl double beam densitometer and the areas under specific peaks were measured with a Hewlett-Packard digitizer.
After this time some cells were washed four times with cold (4°C) PBS supplemented with 1 mg/ml BSA, solubilized and total cell associated radioactivity was then determined in a gamma counter. […] The cells were then solubilized and samples were analyzed by SDS-PAGE. After electrophoresis, gels were dried, exposed to film and scanned as described in Materials and Methods. The areas under the individual peaks for the Mr 75000-85000 protein are shown as a function of the concentration of the unlabelled peptide and are expressed as a percentage of the control. […] The level of the Mr 75000-85000 protein expressed in arbitrary units is shown as a function of the concentration of the labelled ligand. Inset: autoradiogram of the gel used for scanning; the Mr 75000-85000 and 160,000 bands are indicated by arrows. All other experimental details were as described in Materials and Methods.
(§1) Figure 4. […] Values are expressed as percentage of the specific binding obtained in the absence of antagonists. […] Each point represents the mean of 3 determinations. […] Specific binding (B) is expressed in pmol/10⁶ cells and is shown in a double-reciprocal plot. Each point represents the mean of duplicate determinations. […] After 2 hours, the cultures were washed twice with binding medium then incubated in 1 ml containing 6 mM ethylene glycol bis (succinimidylsuccinate) (EGS) at pH 7.4 for 15 minutes at 15°C. The cultures were then washed twice with cold phosphate-buffered saline and solubilised in 0.1 ml of 2x sample buffer, then immediately heated at 100°C for 5 minutes and electrophoresed on a 10% polyacrylamide gel.
After the incubation period cultures were treated with 6 mM EGS as described in Materials and Methods. Each value is expressed as a percentage of the level of the Mr 75000-85000 protein obtained with no additons (-). Other experimental details are as described in Materials and Methods.

GRP receptor [1] = target: T1, GRP receptor (Mus musculus, UniProt P21729); test: specific [¹²⁵I]GRP binding to intact Swiss 3T3 cells
T1 construct: endogenous in cells; host or cells: Swiss 3T3 cells (mouse fibroblasts)
Method: (§2) Cell culture procedure (33), assays of DNA synthesis by ³H-thymidine incorporation (34) ad ¹²⁵I-GRP binding to intact cells (13) were performed as described previously.
as §1

Swiss 3T3 cells [2] = test: GRP-induced DNA synthesis ([³H]thymidine incorporation) in Swiss 3T3 cells; type: cell-based, mouse; conditions: for ability to inhibit mitogenesis stimulated by GRP: substance P antagonists tested at 50 »m, ranking in words
Method: as §2
Figure 3. Inhibition of GRP-induced DNA synthesis by [DPro²]spantide (A) and [DPhe⁵]spantide (D). […] After 40 hours DNA synthesis was estimated by [³H]thymidine incorporation into acid-precipitable material. […] Each point represents the mean of duplicate determinations. […] Values are expressed as a percentage of [³H]thymidine incorporation obtained in the absence of antagonists (100% = 8.6 x 10⁵ cpm per dish). Each point represents the mean of 4 determinations.

Swiss 3T3 cells [3] = conditions: statement in words, earlier work (reference 13); cited from earlier work
GRP receptor [4] = target: T1, GRP receptor; conditions: statement in words, earlier work (reference 13); cited from earlier work
Swiss 3T3 cells [5] = test: GRP-stimulated rise in cytosolic Ca²⁺ concentration (fura-2 fluorescence) in Swiss 3T3 cells; type: cell-based, mouse
Method: (§3) Figure 5. […] Left: Effects of antagonists on [Ca²⁺]i. Quiescent Swiss 3T3 cells grown on Cytodex 2 beads were washed twice with DMEM and incubated for 10 minutes with fura-2 tetracetoxymethyl ester at 1 »m, then washed three times and suspended in 2 ml of electrolyte solution (6) in the fluorimeter at 37°C and stirred. Fluorescence was recorded continuously in a Perkins-Elmer LS5 luminescence spectrometer with an excitation wavelength of 335 nm and emission wavelength of 510 nm. After a period of equilibration, the following additions were made: solvent, S; antagonist A at 5 »m, A, 5 and 20 »m, A, 20; antagonist D at 5»m, D, 5. […] Values are expressed as percentages of the specific binding obtained with [¹²⁵I]EGF alone at 0.2 nM. The non-specific binding was obtained by the addition of 500-fold excess of unlabelled EGF. Each point represents the mean of 6 determinations.

H69 cells = test: growth of SCLC cell line in serum-free medium (cell number, Coulter Counter); type: cell-based
Method: Figure 6. […] Stock cultures of cell lines H69, H128 and H417 were maintained in RPMI 1640 medium with 10% fetal bovine serum (heat inactivated) in a humidified atmosphere of 10% CO₂:90% air at 37°C. They were passaged every 7 days. Identical growth was obtained in the serum-free medium of RPMI 1640 supplemented with HITES (29) (hydrocortisone, 10 nM; insulin, 5 »g/ml; transferrin, 100 »g/ml; 17β-estradiol, 10 nM; sodium selenite, 30 nM) and 0.25% bovine serum albumin. […] Cell number was determined at intervals over 14 days in a Coulter Counter after disaggregation of cell clumps by syringing through 19G and 21G needles. Each point represents the mean of 3 determinations.
Figure 7. Inhibition of SCLC growth in vitro by [DPro²]spantide and [DPhe⁵]spantide is concentration-dependent. Cultures of H69 cells were washed twice with RPMI 1640 medium then incubated in serum-free medium (as in Figure 6) in the absence (●) or presence of various concentrations of [DPro²]spantide (o,A) and [DPhe⁵]spantide (△,D). Cell number was determined in a Coulter Counter after disaggregation of cell clumps by syringing through 19G and 21 G needles. Samples were incubated for 13 days, when the controls (inset) had achieved 10-fold increase in number, indicated by the arrow. Each point represents the mean (± standard deviation) of 5 determinations.

Swiss 3T3 cells [6] = test: reversal of the inhibition of [¹²⁵I]EGF binding induced by GRP in Swiss 3T3 cells; type: cell-based, mouse; conditions: read-out: Half-maximal reversal of inhibition (of [¹²⁵I]EGF binding by GRP); [¹²⁵I]EGF 0.2 nM, GRP 3.6 nM, 1 hour, 37°C
Method: as §3

Sequence of Mr 75000-85000 protein (P21729 whole entry): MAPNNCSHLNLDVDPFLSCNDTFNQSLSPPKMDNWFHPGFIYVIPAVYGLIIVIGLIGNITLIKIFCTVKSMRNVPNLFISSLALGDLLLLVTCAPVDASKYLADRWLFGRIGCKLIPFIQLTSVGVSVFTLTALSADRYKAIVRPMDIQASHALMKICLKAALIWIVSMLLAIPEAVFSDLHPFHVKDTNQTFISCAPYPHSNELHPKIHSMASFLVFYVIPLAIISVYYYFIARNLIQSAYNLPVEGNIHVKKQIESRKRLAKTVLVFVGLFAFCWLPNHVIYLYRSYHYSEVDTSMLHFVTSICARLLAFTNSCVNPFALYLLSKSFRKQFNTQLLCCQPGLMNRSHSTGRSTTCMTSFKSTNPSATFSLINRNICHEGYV
T1 sequence (P21729 whole entry): as above

IC50 (Mr 75000-85000 protein; read-out: Half-maximal inhibition (affinity-labelling of the Mr 75000-85000 protein)): 5.5 µM | IC50 (GRP receptor [1]; read-out: Half-maximal inhibition of binding): 2.3 µM
Molecule: CC(C)C[C@H](NC(=O)[C@H](CC(C)C)NC(=O)[C@@H](Cc1c[nH]c2ccccc12)NC(=O)[C@H](Cc1ccccc1)NC(=O)[C@@H](Cc1c[nH]c2ccccc12)NC(=O)[C@H](CCC(N)=O)NC(=O)[C@@H](Cc1ccccc1)NC(=O)[C@@H]1CCCN1C(=O)[C@H](CCCCN)NC(=O)[C@@H]1CCCN1C(=O)[C@H](N)CCCN=C(N)N)C(N)=O [[DPhe⁵]spantide, D-Arg-Pro-Lys-Pro-D-Phe-Gln-D-Trp-Phe-D-Trp-Leu-Leu-NH₂] (H-[dR]PKP[dF]Q[dW]F[dW]LL-NH2)

Molecule: Spantide
antagonist activity (Swiss 3T3 cells [2]; even at 100 uM): no antagonist activity | ability to inhibit mitogenesis stimulated by GRP (Swiss 3T3 cells [2]): less potent than either A or D

Molecule: Vasopressin: mitogen for Swiss 3T3 cells
cross-linking of ¹²⁵I-GRP / level of the Mr 75000-85000 protein (in words) (Mr 75000-85000 protein): not substantially affected | Mr 75000-85000 protein % of control (Mr 75000-85000 protein): 94 % of control

cross-linking of ¹²⁵I-GRP / level of the Mr 75000-85000 protein (in words) (Mr 75000-85000 protein): no reduction | Mr 75000-85000 protein % of control (Mr 75000-85000 protein): 93 % of control
Molecule: GRP (1-16): the 1-16 amino acid fragment of GRP (amino-terminal fragment) (VPLPAGGGTVLTKMYP; Gastrin-releasing peptide; UniProt P07492 24-39, looked up, fragment)
stimulation of DNA synthesis (Swiss 3T3 cells [3]): nor stimulates DNA synthesis | inhibition of GRP binding to Swiss 3T3 cells (GRP receptor [4]): neither inhibits

Mr 75000-85000 protein % of control (Mr 75000-85000 protein): 0.4 % of control
Molecule: GRP (14-27): the 14-27 amino acid fragment of GRP (MYPRGNHWAVGHLM; ends and bridges not checked; UniProt P07492 37-50, looked up, fragment)

Molecule: CSCC[C@H](NC(=O)[C@H](CC(C)C)NC(=O)CNC(=O)[C@H](Cc1ccccc1)NC(=O)[C@H](Cc1ccccc1)NC(=O)[C@H](CCC(N)=O)NC(=O)[C@H](CCC(N)=O)NC(=O)[C@@H]1CCCN1C(=O)[C@H](CCCCN)NC(=O)[C@@H]1CCCN1C(=O)[C@@H](N)CCCNC(=N)N)C(N)=O [Substance P]
stimulation of DNA synthesis (Swiss 3T3 cells [3]): nor stimulates DNA synthesis | cross-linking of ¹²⁵I-GRP / level of the Mr 75000-85000 protein (in words) (Mr 75000-85000 protein): no effect | inhibition of GRP binding to Swiss 3T3 cells (GRP receptor [4]): neither inhibits

Molecule: Neurotensin: unrelated factor
Mr 75000-85000 protein % of control (Mr 75000-85000 protein): 93 % of control

affinity of the receptors of [¹²⁵I]GRP (GRP receptor [1]; 10 »m antagonist, double reciprocal plot, number of binding sites unchanged): markedly reduces the affinity | difference in potency (GRP receptor [1]; [DPhe⁵]spantide versus [DPro²]spantide, inhibition of specific [¹²⁵I]GRP binding): 6.1 fold
Molecule: CC(C)C[C@H](NC(=O)[C@H](CC(C)C)NC(=O)[C@@H](Cc1c[nH]c2ccccc12)NC(=O)[C@H](Cc1ccccc1)NC(=O)[C@@H](Cc1c[nH]c2ccccc12)NC(=O)[C@H](CCC(N)=O)NC(=O)[C@@H](Cc1ccccc1)NC(=O)[C@@H]1CCCN1C(=O)[C@H](CCCCN)NC(=O)[C@@H]1CCCN1C(=O)[C@H](N)CCCNC(=N)N)C(N)=O [[DPhe⁵]spantide, D-Arg-Pro-Lys-Pro-D-Phe-Gln-D-Trp-Phe-D-Trp-Leu-Leu-NH₂] (H-[dR]PKP[dF]Q[dW]F[dW]LL-NH2)
rise in [Ca²⁺]i caused by the addition of GRP (Swiss 3T3 cells [5]; GRP (1 nM), antagonist at 5 »m): effective | response to PDGF ([Ca²⁺]i) (Swiss 3T3 cells [5]; antagonist at 5 »m, PDGF at 1 nM, specificity): did not prevent | fold more potent than [DPro²]spantide in this assay (Swiss 3T3 cells [5]; prevention of the GRP-induced rise in [Ca²⁺]i): at least 4 fold | IC50 (Swiss 3T3 cells [2]; GRP 3.6 nM, 40 hours, Figure 3 right, read-out: Half-maximal inhibition of DNA synthesis): 22 µM | concentration of GRP required to produce half-maximal stimulation of DNA synthesis (Swiss 3T3 cells [2]; antagonist at 20 »m, Figure 3 left): markedly increased | fold more potent than [DPro²]spantide in inhibiting DNA synthesis induced by GRP (Swiss 3T3 cells [2]; ratio of half-maximal concentrations): 5.4 fold | ability to inhibit mitogenesis stimulated by GRP (Swiss 3T3 cells [2]): most potent GRP antagonist | IC50 (H69 cells; H69 cells, serum-free medium, 13 days, read-out: half-maximal effect (inhibition of growth)): 24 µM | potency of Antagonist D over Antagonist A (H69 cells; H69 growth inhibition): more than 5 fold | EC50 (Swiss 3T3 cells [6]): 8.7 µM

Molecule: Somatostatin: neuropeptide
cross-linking of ¹²⁵I-GRP / level of the Mr 75000-85000 protein (in words) (Mr 75000-85000 protein): no effect | Mr 75000-85000 protein % of control (Mr 75000-85000 protein): 97 % of control
